Reference: US4442031A, “Immunopotentiating peptides” (Hoffmann-La Roche Inc., priority 1983, dated 1984)
Where no end group is shown, it is not given here.

Tests used:
Format in all cases: in vivo
[1] = test system: Candida albicans ATCC 10231; test: Protective activity against Candida albicans infection in 5-FU immunosuppressed mice; conditions: for Survivors Day 8 / Survivors Day 15: ddY mice
Method: In a series of examples, the compounds of formula I were tested for protective activity against opportunistic infections in immunosuppressed mice. Female ddY mice (6 weeks old) weighing about 26 g were pretreated daily for ten days with 5-fluorouracil (5-FU) (25 mg/kg/day, i.p.) and with thymosin α1 or with compounds of formula I (i.p.) at varying dosages. The mice were then infected with Candida albicans ATCC 10231 (1×10^5 cells or more) at 24 hour after the last treatment. One control group was administered 5-FU and saline solution and a second control group received neither 5-FU nor compound of formula I prior to infection with Candida albicans. The number of animals surviving eight days after infection with Candida albicans and 15 days after infection with Candida albicans is presented in the table below.
(§1) Normal mice (female ddY mice, 6 weeks old) were highly tolerant to infection with Candida albicans ATCC 10231 at relatively low dose (1-2×10^5 cells, iv.). However, when pretreated daily for ten times with 5-FU (25 mg/kg/day, ip.), the mice were susceptible to infection as shown in Table 6. […] Compound A was also shown to be active against infection with Pseudomonas aeruginosa 5E81-1 and Listeria monocytogenes EGD in the immunosuppressed mice (see Tables 7 and 8).

[2] = test system: delayed-type hypersensitivity (DTH); test: Restoration of delayed-type hypersensitivity (DTH) decreased by 5-FU in BDF1 mice; conditions: for DTH response %: % of control
Method: A poor prognosis is often observed in cancer patients with impaired immune response. Impaired immune response can be caused by the cancer itself, by chemotherapeutic agents, or by radiotherapy. Thus, therapeutic agents which restore impaired immune response in cancer patients are expected to play an important role in combination therapy. The restoration activity of the compounds of the invention on impaired cell-mediated immunity was determined by measuring the enhancement of delayed-type hypersensitivity (DTH), which was decreased to a great extent in mice treated with 5-fluorouracil (5-FU).
Female BDF1 mice (20-22 g, 11-12 weeks old) received (i.p. or p.o.) the compound to be tested on consecutive days one day before, concurrently with and 1 and 2 days after the 5-FU treatment. For DTH measurement, 10^8 chicken red blood cells (CRBC) were injected i.p. (or s.c. into the left hind footpad) and challenged s.c. into the right hind footpad at 3 and 7 days after the 5-FU treatment, respectively. Restoration activity was calculated by the following formula from the DTH response observed in the control group, 5-FU treated group treatment and the Test group treated both with 5-FU and the compound of the invention. Restoration activity was calculated by the formula: [formula]

[3] = test system: Pseudomonas aeruginosa 5E81-1; test: Protection against Pseudomonas aeruginosa infection in 5-FU immunosuppressed mice; conditions: Table 7, i.p., 5-FU immunosuppressed mice, control 0/30
Method: as §1

[4] = test system: Listeria monocytogenes EGD; test: Protection against Listeria monocytogenes infection in 5-FU immunosuppressed mice; conditions: Table 8, i.p., 5-FU immunosuppressed mice, control 2/10
Method: as §1

[5] = test system: Listeria monocytogenes EGD; test: Growth of Listeria monocytogenes in liver of P388 tumor-bearing mice; conditions: Tumor-bearing CDF1 mice, i.p., seven times before infection, 3 days after infection, control 7.1
Excerpt: The immunocompetence of tumor-bearing mice is known to be frequently deficient. This is illustrated by the fact that Listeria monocytogenes EGD grew considerably in tumor-bearing mice as compared to normal mice (see Table 9). Male CDF1 mice (6 weeks old) transplanted with P388 leukemia (3×10^5 cells, footpad) were infected with Listeria monocytogenes (2×10^3 cells, iv.) 7 days after the transplant. Three days thereafter the number of the bacteria grown in liver was counted.

P388 leukemia = test: Protective activity against P388 leukemia growth in 5-FU immunosuppressed mice; conditions: for Mean Survival days (days ± S.D.): CDF1 mice, 5-FU +, P388 +, 5-FU + saline 4.1
Method: The treatment with cytostatic agents often decreases immunocompetence and consequently increases incidence of metastasis of tumor in cancer patients. […] In the experiment shown in Table 10, male CDF1 mice (6 week old) were treated daily for 8 times with or without 5-FU (28 mg/kg/day ip.) and then transplanted subcutaneously with P388 leukemic cells (3×10^5) into footpad 24 hours later. When pretreated with 5-FU, mice died very quickly at 4 days, while normal mice survived about 23 days after the transplant. […] Thymosin α1 and compound A may improve the immunodefense system against metastatic tumor growth in cancer patients who are receiving immunosuppressive chemotherapy. In combination with thymosin α1 or compound A, more extensive cancer chemotherapy for a longer duration may be possible.
^(1) CDF1 mice were pretreated daily for 8 times from Day 8 to
with 5FU (28 mg/kg/day, ip.).
^(2) Thymosin α1 or Compound A were administered daily for
14 times from Day 8 to 5 by ip. route.
^(3) P388 leukemic cells (3 × 10^5) were inoculated into
^(4) Survival days after the inoculation of the leukemic cells.

[6] = Example 8, 40.0 μg/kg i.p. daily for ten days with 5-FU
[7] = Example 10, 0.4 μg/kg i.p. daily for ten days with 5-FU
[8] = Example 10, 4.0 μg/kg i.p. daily for ten days with 5-FU
[9] = Example 10, 40.0 μg/kg i.p. daily for ten days with 5-FU
[10] = Example 11, 4.0 μg/kg i.p. daily for ten days with 5-FU
[11] = Example 11, 40.0 μg/kg i.p. daily for ten days with 5-FU
[12] = Example 11, 400.0 μg/kg i.p. daily for ten days with 5-FU
[13] = Table 2, 5-FU plus 0.5 μg/kg/day, i.p.
[14] = Table 2, 5-FU plus 5.0 μg/kg/day, i.p.
[15] = Table 3, first experiment, 5-FU plus 5.0 μg/kg/day, i.p.
[16] = Table 4, 5-FU plus 5.0 μg/kg/day i.p.

Q: For “thymosin α1 (SDAAVDTSSEITTKDLKEKKEVVEEAEN; ends and bridges not checked; UniProt P01252 2-29, looked up) [peptide isolated from bovine thymus, stimulates maturation, differentiation and function of T cells; U.S. Pat. No. 4,079,127, reference compound]”, which “Survivors Day 8” value [1, 6] is on record?
A: The value was 5/7.

Q: What about the “Survivors Day 15” value [1, 6] of the same substance?
A: The value was 5/7.

Q: What about the “Survivors Day 8” value ([1]; Example 9, 40.0 μg/kg i.p. daily for ten days with 5-FU) of the same substance?
A: The value was 4/7.

Q: What about the “Survivors Day 8” value [1, 7] of the same substance?
A: The value was 3/10.

Q: What about the “Survivors Day 15” value [1, 7] of the same substance?
A: Its value is 3/10.

Q: And the “Survivors Day 8” value [1, 8]?
A: Its value is 6/10.

Q: What about the “Survivors Day 15” value [1, 8] of the same substance?
A: The value was 5/10.

Q: And the “Survivors Day 8” value [1, 9]?
A: The value was 9/10.

Q: And the “Survivors Day 15” value [1, 9]?
A: The value was 8/10.

Q: And the “Survivors Day 8” value [1, 10]?
A: Its value is 3/10.

Q: What about the “Survivors Day 15” value [1, 10] of the same substance?
A: Its value is 3/10.

Q: What about the “Survivors Day 8” value [1, 11] of the same substance?
A: The value was 6/10.

Q: And the “Survivors Day 15” value [1, 11]?
A: The value was 5/10.

Q: And the “Survivors Day 8” value [1, 12]?
A: The value was 8/10.

Q: And the “Survivors Day 15” value [1, 12]?
A: The value was 8/10.

Q: What about the “Survivors at Day 8 after infection” value ([1]; Table 6, 40 μg/kg/day, i.p., ten times with 5-FU, control 1/7) of the same substance?
A: Its value is 4/7.

Q: And the “Restoration Activity(%)” value [2, 13]?
A: Its value is 1.3%.

Q: What about the DTH response % [2, 13] of the same substance?
A: Its DTH response % is 56.0%.

Q: And the “DTH response av. ± S.E. (0.1 mm)” value ([2]; Table 2, 5-FU plus 0.5 μg/kg/day, i.p., control 10.3, 5-FU alone 5.7)?
A: Its value is 5.8 ± 1.1 0.1 mm.

Q: And the “Restoration Activity(%)” value [2, 14]?
A: Its value is 50.3%.

Q: What about the DTH response % [2, 14] of the same substance?
A: Its DTH response % is 77.8%.

Q: What about the “DTH response av. ± S.E. (0.1 mm)” value ([2]; Table 2, 5-FU plus 5.0 μg/kg/day, i.p., control 10.3, 5-FU alone 5.7) of the same substance?
A: Its value is 8.0 ± 1.2 0.1 mm.

Q: And the “DTH response av. ± S.E. (0.1 mm)” value ([2]; Table 3, first experiment (control 8.5, 5-FU alone 4.8), 5-FU plus 5.0 μg/kg/day, i.p.)?
A: Its value is 7.3 ± 0.8 0.1 mm.

Q: And the “Restoration Activity(%)” value [2, 15]?
A: Its value is 68.7%.

Q: What about the DTH response % [2, 15] of the same substance?
A: Its DTH response % is 86.3%.

Q: And the “DTH response av. ± S.E. (0.1 mm)” value ([2]; Table 4 (control 7.7, 5-FU alone 5.6), 5-FU plus 0.5 μg/kg/day i.p.)?
A: The value was 5.4 ± 1.2 0.1 mm.

Q: What about the “DTH response av. ± S.E. (0.1 mm)” value ([2]; Table 4 (control 7.7, 5-FU alone 5.6), 5-FU plus 5.0 μg/kg/day i.p.) of the same substance?
A: Its value is 7.3 ± 0.8 0.1 mm.

Q: What about the DTH response % ([2]; Table 4, 5-FU plus 0.5 μg/kg/day i.p.) of the same substance?
A: Its DTH response % is 70.1%.

Q: What about the “Restoration Activity(%)” value [2, 16] of the same substance?
A: Its value is 81.0%.

Q: And the DTH response % [2, 16]?
A: The DTH response % was 94.8%.

Q: What about the “Survivors at Day 15 after infection” value ([3]; 0.4 μg/kg/day) of the same substance?
A: The value was 7/20.

Q: What about the “Survivors at Day 15 after infection” value ([3]; 4 μg/kg/day) of the same substance?
A: Its value is 12/30.

Q: What about the “Survivors at Day 15 after infection” value ([3]; 40 μg/kg/day) of the same substance?
A: The value was 16/30.

Q: What about the “Survivors at Day 15 after infection” value ([4]; 4 μg/kg/day) of the same substance?
A: The value was 7/10.

Q: And the “Survivors at Day 15 after infection” value ([4]; 40 μg/kg/day)?
A: The value was 5/10.

Q: And the “Growth of Bacteria (log10 /liver)” value ([5]; 4 μg/kg/day)?
A: The value was 5.0 log10 /liver.

Q: What about the “Growth of Bacteria (log10 /liver)” value ([5]; 40 μg/kg/day) of the same substance?
A: Its value is 5.3 log10 /liver.

Q: What about the “Mean Survival days (days ± S.D.)” value (P388 leukemia; 4 μg/kg/day ip. 14 times) of the same substance?
A: Its value is 17.6 ± 8.2 days.

Q: And the “Mean Survival days (days ± S.D.)” value (P388 leukemia; 40 μg/kg/day ip. 14 times)?
A: Its value is 20.7 ± 2.8 days.

Q: What about the “survival days (in words)” value (P388 leukemia; daily treatment in addition to 5-FU, 8 times before and 6 times after the transplant) of the same substance?
A: The value was “increased the survival days to the level similar to that obtained in normal mice”.
